Measured values reported in US20220226343A1, “3-AMINO-4-[4-[4 (DIMETHYLCARBAMOYL) PHENYL]-1,4-DIAZEPAN-1-YL]THIENO[2,3-B]PYRIDINE-2-CARBOXAMIDE FOR USE IN CANCER THERAPY AND FORMULATIONS COMPRISING THE SAME” (University of South Carolina, priority 2019, published 2022).
Where two headings read alike, the source gives them in different places.

How the values were obtained:
[1] = system: CDK8/19; assay: NFκB reporter assay in parental 293 reporter cells; type: cell-based
Source text: We have used a cell-based assay to measure the inhibition of CDK8/19 activity by thienopyridine derivatives. This assay, based on the role of CDK8/19 in NFκB-driven transcription (Chen, 2017), measures the effects of CDK8/19 on the expression of firefly luciferase reporter from a NFκB-dependent promoter in 293 cells. Lentiviral vector pHAGE-NFKB-TA-LUC-UBC-dTomato-W (Addgene #49335) was introduced into 293 cells and a clonal cell line showing the strongest induction of luciferase expression upon TNFα treatment was established and used as the reporter cell line. As a control for CDK8/19 dependence of NFκB inhibition, we have also introduced the same reporter construct into 293 cells with CRISPR/CAS9 knockout of both CDK8 and CDK19.
FIG. 2C and Table 1 compares the IC50 values for different thienopyridines measured in the NFκB reporter assay in parental 293-derived reporter cell line to the cell-based activity values measured for the same compounds by Saito (2013) based on their effect on alkaline phosphatase (ALPase), an indicator of differentiation to osteoblasts in the mouse bone marrow stromal cell line ST2. The latter effects are expressed as EC200, a concentration that enhances ALPase activity to 200% of control.

[2] = Mouse PK, intravenous 0.5 mg/kg; type: in vivo; settings: i.v. 0.5 mg/kg, male FVB mice, mixture
[3] = system: PSA expression in CRPC cell line C4-2; assay: PSA expression in cell culture supernatant of C4-2 cells; type: cell-based; settings: 96 h; C4-2 culture supernatant, 4-day treatment, FBS-supplemented regular media
Source text: CDK8/19 inhibition decreases the expression of certain androgen-receptor (AR) inducible genes including PSA, the most common marker of prostate cancer, and the growth of castration-refractory prostate cancers (CRPC).

[4] = Oral PK by formulation, male Sprague Dawley rats 30 mg/kg; type: in vivo, rat; settings: oral 30 mg/kg
Experimental: We have also compared the PK of Suspension Vehicle 1 and Liquid formulation 2 in male Sprague Dawley rats, after oral administration at 30 mg/kg.

[5] = Maximum solubility of 15u in individual excipients; type: physicochemical; parameters: key to XRPD Pattern (API = A): API = A
Experimental: The binary mixtures were incubated on a shaker with temperature control either at 25° C. or 40° C. for at least 48 hours. The mixtures were filtered with 0.45 μm filters to separate the solid and liquid portions. PLC was performed on the on the liquid portion to determine the maximum solubility. XRPD was performed on the collected solid to check polymorph change.

[6] = system: CRPC cell line 22rv1 xenograft
[7] = Oral PK, male Cynomolgus monkeys 25 mg/kg; settings: Liquid formulation 2, oral 25 mg/kg
[8] = Oral PK by formulation, male FVB mice 50 mg/kg; settings: for Elimination rate k: male FVB
[9] = 50 mg/kg orally daily, castrated male nude mice

Compound `CN(C)C(=O)c1ccc(N2CCCN(c3ccnc4sc(C(N)=O)c(N)c34)CC2)cc1` [Compound 15u, 3-amino-4-(4-(4-(dimethylcarbamoyl)phenyl)-1,4-diazepan-1-yl)thieno[2,3-b]pyridine-2-carboxamide] has an IC50 ([1]; NFκB Activity Assay as described in Example 1, read-out: Inhibition Potency HEK293-NFkB-Luc Assay) of 0.0103 µM, an IC50 ([1]; parental 293-derived reporter cell line, read-out: NFκB activity Assay IC50) of 0.01 µM and an Elimination rate [2] of 1.98 h⁻¹. For the same compound, the IC50 [3] was 0.028 µM, the “increase of AUC, Liquid formulation 2 vs Suspension Vehicle 1” value [4] was over 3 fold and the “Maximum Solubility” value ([5]; Capryol 90) was 2.9 mg/g. For the same compound, the “Maximum Solubility” value ([5]; Crodamol GMCC SS) was 5.5 mg/g, the “Maximum Solubility” value ([5]; Gelucire 44/14) was 3.4 mg/g and the “Maximum Solubility” value ([5]; Kolliphor EL) was 1.3 mg/g. For the same compound, the “Maximum Solubility” value ([5]; Labrafac PG) was 0.0 mg/g, the “Maximum Solubility” value ([5]; Labrafil M2125CS) was 0.4 mg/g and the “Maximum Solubility” value ([5]; Labrasol) was 5.4 mg/g. The “Maximum Solubility” value ([5]; Lecithin) was 1.9 mg/g, the “Maximum Solubility” value ([5]; Maisine CC) was 2.4 mg/g and the “Maximum Solubility” value ([5]; Miglyol 812N) was 0.0 mg/g. The “Maximum Solubility” value ([5]; Oleic Acid) was 0.8 mg/g, the “Maximum Solubility” value ([5]; Olive Oil) was 0.0 mg/g and the “Maximum Solubility” value ([5]; PEG 300) was 19.8 mg/g. The “Maximum Solubility” value ([5]; PEG 400) was 11.8 mg/g, the “Maximum Solubility” value ([5]; PEG 600) was 18.3 mg/g and the “Maximum Solubility” value ([5]; Peceol) was 2.5 mg/g. The “Maximum Solubility” value ([5]; Sesame Oil) was 0.0 mg/g, the “Maximum Solubility” value ([5]; Span 20) was 8.0 mg/g and the “Maximum Solubility” value ([5]; Span 80) was 1.4 mg/g. For the same compound, the “Maximum Solubility” value ([5]; Transcutol HP) was 3.4 mg/g, the “Maximum Solubility” value ([5]; Tween 80) was 1.9 mg/g and the “Maximum Solubility” value ([5]; Vitamin E TPGS) was 14.6 mg/g. The “XRPD Pattern (API = A)” value ([5]; solid collected from Capryol 90) was “A”, the “XRPD Pattern (API = A)” value ([5]; solid collected from Crodamol GMCC SS) was “A” and the “XRPD Pattern (API = A)” value ([5]; solid collected from Kolliphor EL) was “A”. The “XRPD Pattern (API = A)” value ([5]; solid collected from Labrafac PG) was “A”, the “XRPD Pattern (API = A)” value ([5]; solid collected from Labrafil M2125CS) was “A” and the “XRPD Pattern (API = A)” value ([5]; solid collected from Labrasol) was “A”. The “XRPD Pattern (API = A)” value ([5]; solid collected from Lecithin) was “A”, the “XRPD Pattern (API = A)” value ([5]; solid collected from Maisine CC) was “A” and the “XRPD Pattern (API = A)” value ([5]; solid collected from Miglyol 812N) was “A”. The “XRPD Pattern (API = A)” value ([5]; solid collected from Oleic Acid) was “A”, the “XRPD Pattern (API = A)” value ([5]; solid collected from Olive Oil) was “A” and the “XRPD Pattern (API = A)” value ([5]; solid collected from PEG 300) was “A”. For the same compound, the “XRPD Pattern (API = A)” value ([5]; solid collected from PEG 400) was “A”, the “XRPD Pattern (API = A)” value ([5]; solid collected from PEG 600) was “A” and the “XRPD Pattern (API = A)” value ([5]; solid collected from Peceol) was “A”. The “XRPD Pattern (API = A)” value ([5]; solid collected from Sesame Oil) was “A”, the “XRPD Pattern (API = A)” value ([5]; solid collected from Span 20) was “A” and the “XRPD Pattern (API = A)” value ([5]; solid collected from Span 80) was “A”. For the same compound, the “XRPD Pattern (API = A)” value ([5]; solid collected from Tween 80) was “A”, the “22rv1 tumor growth over the long term” value ([6]; 50 mg/kg once a day, 25 mg/kg twice a day, 50 mg/kg twice a day) was “drastically inhibited 22rv1 tumor growth” and the “22rv1 xenograft tumor growth” value [6, 9] was “strongly suppressed the tumor growth”. For the same compound, the “adverse effects and mouse body weight” value [6, 9] was “no apparent adverse effects and no diminution of mouse body weight”, the adverse effects [7] was “no adverse effects were observed” and the Elimination rate k ([8]; LF-V#1, oral 50 mg/kg) was 0.13 h⁻¹. For the same compound, the Elimination rate k ([8]; Sus-V#1, oral 50 mg/kg) was 0.25 h⁻¹, the “increase of AUC, Liquid formulation 1 vs Suspension Vehicle 1” value ([8]; oral 50 mg/kg, male FVB mice) was 2.3 fold and the “increase of t1/2, Liquid formulation 1 vs Suspension Vehicle 1” value ([8]; oral 50 mg/kg, male FVB mice) was about 2 fold.
